Entries after “also recorded” stand apart in the source; their conditions may differ.
Columns and labels:
[1] = test system: Diabetic Peripheral Neuropathy in a Mouse Induced by Streptozotocin; assay: Cold plate test (4° C.), diabetic peripheral neuropathy induced by streptozotocin; format: in vivo, C57BL/6J mice; details: group receiving streptozotocin only (200 mg/kg, Day 0 only), vs control group
Procedure: (§1) Six to seven-week-old male C57BL/6J mice were used for the tests as with Example 7. All the mice were acclimated for seven days after arrival. Then, the mice were grouped into the following four groups: a control group, a group receiving streptozotocin, a group receiving 1 mg/kg xylitol, and a group receiving streptozotocin+1 mg/kg xylitol. Each group consisted of nine mice.
(§2) The mice in the group receiving 1 mg/kg xylitol were orally administered with xylitol at a dose of 1 mg/kg daily from Day 0. The mice in the group receiving streptozotocin+1 mg/kg xylitol were orally administered with xylitol at a dose of 1 mg/kg daily from Day 21 of administration.
A cold plate test was performed to examine the effect due to xylitol on paresthesia that is caused by a low temperature stimulus. The mice in the four groups described in (1) of the present example (Example 8) were placed on a cold plate set at 4° C., and withdrawal response time (latent time) was measured. It is presumed that a shorter withdrawal response time (latent time) reflects a greater degree of shunning the low temperature stimulus by the cold plate. […]
(§3) On Day 8 of acclimation, the mice in the group receiving streptozotocin and the group receiving streptozotocin+5 mg/kg D-threitol were administered with streptozotocin at a dose of 200 mg/kg. A massive dose of streptozotocin destroys pancreatic cells in the mice. As a result, insulin is no longer secreted, and thus, diabetes can be developed in the mice. This day was designated as the first day of the administration (Day 0). Note that streptozotocin was administered only on the first day of administration.
(§4) The mice in the group receiving 5 mg/kg D-threitol and the group receiving streptozotocin+5 mg/kg D-threitol were orally administered with D-threitol at a dose of 5 mg/kg daily from Day 0. […]
The mice in the group receiving 5 mg/kg D-threitol were orally administered with D-threitol at a dose of 5 mg/kg daily from Day 0. The mice in the group receiving streptozotocin+5 mg/kg D-threitol were orally administered with D-threitol at a dose of 5 mg/kg daily from Day 21 of administration.
(§5) A cold plate test was performed to examine the effect of D-threitol on paresthesia that is caused by a low temperature stimulus. The mice in the four groups described in (1) of the present example (Example 10) were placed on a cold plate set at 4° C., and withdrawal response time (latent time) was measured. […]
as §5, with “L-talitol” for “D-threitol”, “11)” for “10)”

[2] = test system: Diabetic Peripheral Neuropathy in a Mouse Induced by Streptozotocin; assay: Von Frey test (0.16 g filament), diabetic peripheral neuropathy induced by streptozotocin; format: in vivo, C57BL/6J mice; details: group receiving streptozotocin only (200 mg/kg, Day 0 only), vs control group
Procedure: as §3, with “streptozotocin+1” for “streptozotocin+5”, “xylitol” for “D-threitol”, “administration. […]” for “administration.”
as §1, §2
The mice in the four groups described in (1) of the present example (Example 8) were placed in a cage, and the avoidance response frequency (score) was measured by pressing a filament with a bending force of 0.16 g against the back of the hind paw. […]
as §3, §4
The mice in the group receiving 5 mg/kg D-threitol were orally administered with D-threitol at a dose of 5 mg/kg daily from Day 0. […]
The mice in the four groups described in (1) of the present example (Example 10) were placed in a cage, and the avoidance response frequency (score) was measured by pressing a filament with a bending force of 0.16 g against the back of the hind paw. […]
The mice in the four groups described in (1) of the present example (Example 11) were placed in a cage, and the avoidance response frequency (score) was measured by pressing a filament with a bending force of 0.16 g against the back of the hind paw. […]

[3] = test system: Peripheral Neuropathy in a Mouse Caused by Oxaliplatin; assay: Cold plate test (10° C.), peripheral neuropathy caused by oxaliplatin; format: in vivo, Balb/c mice; details: group receiving 6 mg/kg oxaliplatin only (i.p. Day 0, 7, 14), vs control group
Procedure: The preventive action of xylitol on hyperesthesia that occurs when an anticancer drug, oxaliplatin, was administered was examined. […] Xylitol was orally administered to a mouse simultaneously with the administration of oxaliplatin, and the following tests (cold plate test and von Frey test) were performed. Oxaliplatin is an anticancer drug classified as a platinum-containing drug. In all of the examples described below, a dosage (administered amount) (mg/kg) refers to the weight of the administered substance per kg body weight of the mouse.
Six to seven-week-old female Balb/c mice were used for the tests. All the mice were acclimated for seven days after arrival. Then, the mice were grouped into the following four groups: a control group, a group receiving oxaliplatin, and two groups receiving oxaliplatin and two different doses of xylitol (groups receiving oxaliplatin+xylitol). Each group consisted of nine mice.
(§6) On Day 8 of acclimation, the mice in the group receiving oxaliplatin and the groups receiving oxaliplatin+xylitol were intraperitoneally administered with oxaliplatin at a dose of 6 mg/kg. This day was designated as Day 0 of administration. Thereafter, these mice were intraperitoneally administered with oxaliplatin at a daily dose of 6 mg/kg on Day 7 and Day 14.
The mice in a first group receiving oxaliplatin and xylitol were orally administered with xylitol at a dose of 1 mg/kg daily from Day 0. The mice in a second group receiving oxaliplatin and xylitol were orally administered with xylitol at a dose of 5 mg/kg daily from Day 0.
(§7) A cold plate test was performed to examine the effect of xylitol on paresthesia that is caused by a low temperature stimulus. The mice in the four groups described in (1) of the present example (Example 1) were placed on a cold plate set at 10° C., and withdrawal response time (latent time) was measured. It is presumed that a shorter latent time reflects a greater degree of shunning the low temperature stimulus by the cold plate.
Six to seven-week-old female Balb/c mice were used for the tests as with Example 1. All the mice were acclimated for seven days after arrival. Then, the mice were grouped into the following five groups: a control group, a group receiving only oxaliplatin, and three groups receiving oxaliplatin and three different doses of xylitol. Each group consisted of seven mice.
(§8) On Day 8 of acclimation, the mice in the groups other than the control group were intraperitoneally administered with oxaliplatin at a dose of 6 mg/kg. This day was designated as the first day of the administration (Day 0). Thereafter, these mice were intraperitoneally administered with oxaliplatin at the same dose on Day 7 and Day 14 for a total of 3 doses.
The mice in a first group receiving oxaliplatin+xylitol were orally administered with xylitol at a dose of 5 mg/kg daily from Day 6 of administration. The mice in a second group receiving oxaliplatin+xylitol were orally administered with xylitol at a dose of 25 mg/kg daily from Day 6 of administration. The mice in a third group receiving oxaliplatin+xylitol were orally administered with xylitol at a dose of 100 mg/kg daily from Day 6 of administration. In this context, “Day 6 of administration” means that the number of days after administration is 6. The same applies hereinafter.
as §7, with “A” for “A cold plate”, “performed on the mice in the five groups described in (1) of the present example (Example 2)” for “performed”, “respective” for “the four”, “groups” for “groups described in (1) of the present example (Example 1)”
Six to seven-week-old female Balb/c mice were used for the tests as with Example 1. All the mice were acclimated for seven days after arrival. […]

[4] = test system: Peripheral Neuropathy in a Mouse Caused by Oxaliplatin; assay: Von Frey test (0.16 g filament), peripheral neuropathy caused by oxaliplatin; format: in vivo, Balb/c mice; details: group receiving 6 mg/kg oxaliplatin only (i.p. Day 0, 7, 14), vs control group
Text: (§9) Six to seven-week-old female Balb/c mice were used for the tests as with Example 1. All the mice were acclimated for seven days after arrival. Then, the mice were grouped into the following four groups: a control group, a group receiving oxaliplatin, a group receiving D-threitol, and a group receiving oxaliplatin and D-threitol (a group receiving oxaliplatin+D-threitol). Each group consisted of five mice.
as §6, with “group” for “groups”, “oxaliplatin+D-threitol” for “oxaliplatin+xylitol”, “the first day” for “Day 0”, “the administration (Day 0).” for “administration.”
The mice in the group receiving D-threitol and the group receiving oxaliplatin+D-threitol were orally administered with D-threitol at a dose of 5 mg/kg daily from Day 0.
The mice in the four groups described in (1) of the present example (Example 3) were placed in a cage, and the avoidance response frequency (score) was measured by pressing a filament with a bending force of 0.16 g against the back of the hind paw.
as §8, with “group receiving oxaliplatin and” for “groups other than”, “the” for “the control”, “group receiving oxaliplatin+D-threitol” for “group”
The mice in the group receiving 100 mg/kg D-threitol were orally administered with D-threitol at a dose of 100 mg/kg daily from Day 0. The mice in the group receiving oxaliplatin+100 mg/kg D-threitol were orally administered with D-threitol at a dose of 100 mg/kg daily from Day 6 of administration.
For the mice in the four groups described in (1) of the present example (Example 4), the avoidance response frequency (score) was measured by pressing a filament with a bending force of 0.16 g against the back of the hind paw.
as §9, with “L-talitol,” for “D-threitol,”, “L-talitol” for “D-threitol”, “oxaliplatin+L-talitol).” for “oxaliplatin+D-threitol).”, “mice. […]” for “mice.”
The mice in the four groups described in (1) of the present example (Example 5) were placed in a cage, and the avoidance response frequency (score) was measured by pressing a filament with a bending force of 0.16 g against the back of the hind paw. […]

SMILES | withdrawal response time (latent time) [1] | avoidance response score [2] | withdrawal response time (latent time) [3] | avoidance response score [4]
CN(N=O)C(=O)N[C@H]1C(O)O[C@H](CO)[C@@H](O)[C@@H]1O (mixture of isomers) [streptozotocin, reference compound] | reduced from Day 7 | increased from Day 7 | – | –
O=C1[O][Pt]2([NH][C@@H]3CCCC[C@H]3[NH]2)[O]C1=O [oxaliplatin, reference compound] | – | – | reduced from Day 3 to Day 6 of the test; also recorded: uniform reduction in the withdrawal response time | remarkable increase in the avoidance response score
